The values below are quoted from earlier work in patent US6528705B1, “Method for improving productivity of higher plants” (Nara Institute of Science and Technology, priority 1999, dated 2003).

Structures are written as SMILES. Where two headings read alike, the source gives them in different places.

Broadly, the Km is the concentration of substrate that gives half-maximal velocity. The term Ki denotes a measure of affinity in units of concentration, obtained from inhibition or displacement.

Series [1] deals with Synechococcus PCC 7942 FBPase-I (fructose-1,6-bisphosphatase/sedoheptulose-1,7-bisphosphatase, FBPase/SBPase), wild type, sequence number 1. The note with it: purified enzyme.
Series [2] concerns the target Synechococcus PCC 7942 FBPase-I (fructose-1,6-bisphosphatase/sedoheptulose-1,7-bisphosphatase, FBPase/SBPase), wild type, sequence number 1.
Series [3] has as its system Synechococcus PCC 7942 FBPase-I (fructose-1,6-bisphosphatase/sedoheptulose-1,7-bisphosphatase, FBPase/SBPase), wild type, sequence number 1. The settings on record: after the treatment by 1 mM H2O2; purified enzyme.

Take `O=P(O)(O)OC[C@H]1OC(O)(COP(=O)(O)O)[C@@H](O)[C@@H]1O` (some centres unmarked) [Fru1,6-P2, fructose-1,6-bisphosphate]: in series [1] (substrate Fru1,6-P2, read-out: Km for Fru1,6-P2), the Km was 52 µM.
In the case of `Nc1ncnc2c1ncn2[C@@H]1O[C@H](COP(=O)(O)O)[C@@H](O)[C@H]1O` [AMP], in series [2] (inhibition of the enzyme activity by AMP), the Ki was 260 µM.
Regarding `O=P(O)(O)OC[C@@H](O)[C@H]1OC(O)(COP(=O)(O)O)[C@@H](O)[C@@H]1O` (some centres unmarked) [Sed1,7-P2, sedoheptulose-1,7-bisphosphate], in series [1] (substrate Sed1,7-P2, read-out: Km for Sed1,7-P2), the Michaelis-Menten constant (Km) is 118 µM.
As to `OO` [H2O2], the “native enzyme activity retained” value in series [3] is recorded as “more than 80%”.
Take `O=P(O)(O)OC[C@H]1O[C@@](CO)(OP(=O)(O)O)[C@@H](O)[C@@H]1O` [fructose-2,6-P2]: in series [2] (fructose-2,6-P2, concentration not given), the “inhibition of enzyme activity” value is reported as “not inhibited”.
